From patent US10981932B2, “Macrocyclic indole derivatives” (Bayer Aktiengesellschaft, priority 2016, dated 2021)
Structures can show the parent of a compound that is named as a salt. Where two headings read alike, the source gives them in different places.

What was measured:
SUDHL5 [1] = assay: Induction of caspase-3/7 activity (Caspase-Glo 3/7), SUDHL5; format: cell-based; settings: Homo sapiens, SU-DHL-5, 3 h, caspase-3/7 induction, SUDHL5 cells, 3 h treatment; median
Procedure, shortened: (§1)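 Apoptosis induction measured as caspase-3/7 activity (Caspase-Glo 3/7) in DLBCL lines after 3 h treatment at 37 °C; EC50 derived relative to the reference compound's maximal induction, with C0 fixed at 1.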

SUDHL10 [2] = assay: Induction of cytotoxicity (CellTiter-Glo, 5 h), SUDHL10
SUDHL10 [3] = assay: Anti-proliferative effect (CellTiter-Glo, 72 h), SUDHL10; format: cell-based; settings: Homo sapiens, SU-DHL10, 72 h, SUDHL10 cells, antiproliferation, median, read-out: Antiproli SUDHL10 [M] (median)
Procedure, shortened: (§2)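 After seeding, one plate is read right away by CellTiter-Glo luminescence to fix time zero. The treated plates stay at 37 °C in humidified air for 72 h and are then measured with the same reagent and 10 min incubation.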

SUDHL10 [4] = assay: Induction of caspase-3/7 activity (Caspase-Glo 3/7), SUDHL10; format: cell-based; settings: caspase-3/7 induction, SUDHL10 cells, 3 h treatment, median
Procedure, shortened: as §1

SUDHL5 [5] = assay: Anti-proliferative effect (CellTiter-Glo, 72 h), SUDHL5; format: cell-based; settings: Homo sapiens, SU-DHL-5, 72 h, SUDHL5 cells, antiproliferation, median, read-out: Antiproli SUDHL5 [M] (median)
Procedure, shortened: as §2

MCL-1 = MCL-1 (Homo sapiens, UniProt Q07820); assay: Protein-protein interaction assay MCL-1/Noxa BH3 peptide (MCL-1 assay), TR-FRET; format: binding; settings: MBP-MCL-1 / Noxa BH3-derived peptide, median
Chain of MCL-1 (Q07820 whole entry): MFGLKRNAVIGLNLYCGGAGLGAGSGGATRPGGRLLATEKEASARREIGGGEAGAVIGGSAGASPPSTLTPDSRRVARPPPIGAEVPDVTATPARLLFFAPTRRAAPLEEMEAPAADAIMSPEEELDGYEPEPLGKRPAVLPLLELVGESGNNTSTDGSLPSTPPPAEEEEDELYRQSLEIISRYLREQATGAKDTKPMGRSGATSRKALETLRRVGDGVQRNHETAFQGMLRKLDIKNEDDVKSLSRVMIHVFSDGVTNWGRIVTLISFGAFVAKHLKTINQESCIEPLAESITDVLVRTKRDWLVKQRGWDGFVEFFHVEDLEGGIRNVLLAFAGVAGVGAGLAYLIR
Procedure, shortened: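 Inhibition values were normalized between DMSO controls with all reagents and controls lacking MCL-1. The binding competition used 1 nM MBP-MCL-1 in pH 7 Tris buffer containing 50 mM KF and 100 mM NaCl, with a 10 min compound preincubation at 22 °C.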

SUDHL5 [6] = assay: Induction of cytotoxicity (CellTiter-Glo, 5 h), SUDHL5; settings: Homo sapiens, SU-DHL-5, 5 h
A2780 = assay: Anti-proliferative effect (CellTiter-Glo, 72 h), A2780; format: cell-based; settings: A2780 cells, median, read-out: IC50 antiproliferation assay A2780 [M] (median)
Procedure, shortened: as §2

[7] = Homo sapiens, SU-DHL10, 5 h, read-out: Cytotox SUDHL10 [M] (median), SUDHL10 cells, cytotoxicity induction, CellTiter-Glo, 5 h incubation, median
[8] = read-out: Cytotox SUDHL5 [M] (median), SUDHL5 cells, cytotoxicity induction, CellTiter-Glo, 5 h incubation, median
[9] = Homo sapiens, SU-DHL10, 5 h, read-out: Cytotox SUDHL10 [M] (median), SUDHL10 cells, cytotoxicity induction, CellTiter-Glo, 5 h, median
[10] = read-out: Cytotox SUDHL5 [M] (median), SUDHL5 cells, cytotoxicity induction, CellTiter-Glo, 5 h, median

SMILES	EC50 (SUDHL5 [1]) [µM]	IC50 (SUDHL10 [3]; 72 h incubation) [M]	EC50 (SUDHL10 [4]; Homo sapiens, SU-DHL10, 3 h) [µM]	IC50 (SUDHL5 [5]; 72 h incubation) [M]	IC50 (MCL-1) [µM]	IC50 (A2780; Homo sapiens, A2780, 72 h) [M]	IC50 (A2780) [M]	IC50 (SUDHL10 [3]; 72 h) [M]	IC50 (SUDHL5 [5]; 72 h) [M]	EC50 (SUDHL10 [4]) [µM]	IC50 (SUDHL10 [2]; [7]) [M]	IC50 (SUDHL5 [6]; [8]) [M]	IC50 (SUDHL10 [2]; [9]) [M]	IC50 (SUDHL5 [6]; [10]) [M]	IC50 (SUDHL10 [2]; read-out: Cytotox SUDHL10 [M] (median), SUDHL10 cells, cytotoxicity induction, CellTiter-Glo, 5 h, median)
Cc1nn(CCN(C)C)c2c1-c1cccc3c(CCCOc4cccc5ccccc45)c(C(=O)O)n(c13)CCCCOC2 (racemic) [Example 244, (rac)-1-[2-(dimethylamino)ethyl]-3-methyl-7-[3-(naphthalen-1-yloxy)propyl]-1,10,11,12,13,15-hexahydropyrazolo[4′,3′:9,10][1,6]oxazacycloundecino[8,7,6-hi]indole-8-carboxylic Acid Trifluoroacetic Acid Salt]	2.69	5e-06	6.42	5.23e-06	0.00664	1.84e-05	–	–	–	–	6.6e-06	3.2e-06	–	–	–
O=C(O)c1c(CCCOc2cccc3ccccc23)c2cccc3c2n1CCCCOCc1nn2c(c1-3)OCCC2 (racemic) [Example 247, (rac)-1-[3-(naphthalen-1-yloxy)propyl]-4,5,6,7,13,14-hexahydro-9H,12H-[1,3]oxazino[3″,2″: 1′,5′]pyrazolo[4′,3′:9,10][1,6]oxazacycloundecino[8,7,6-hi]indole-2-carboxylic Acid]	5.21	9.3e-06	17.3	5.26e-06	0.00615	3.04e-05	> 3.3e-05	–	–	–	1.9e-05	6.79e-06	–	–	–
CCc1nn(C)c2c1-c1c(C)ccc3c(CCCOc4cccc5cc(F)ccc45)c(C(=O)O)n(c13)CCCCOC2 (racemic) [Example 266, (rac)-3-ethyl-7-{3-[(6-fluoronaphthalen-1-yl)oxy]propyl}1,4-dimethyl-1,10,11,12,13,15-hexahydropyrazolo[4′3′:9,10][1,6]oxazacycloundecino[8,7,6-hi]indole-8-carboxylic Acid]	1.79	2.83e-06	4.47	9.96e-07	0.00259	2.83e-05	–	–	–	–	4.99e-06	1.76e-06	–	–	–
CCc1nn(C)c2c1-c1c(C)ccc3c(CCCOc4cc(C)c(Cl)c(C)c4)c(C(=O)O)n(c13)CCCCOC2 (racemic) [Example 269, (rac)-1(3-(4-chloro-3,5-dimethylphenoxy)propyl)-12-ethyl-10,13-dimethyl-4,5,6,7,9,10-hexahydropyrazolo[4′,3′:9,10][1]oxa[6]azacycloundecino[8,7,6-hi]indole-2-carboxylic Acid]	4.83	7.27e-06	13.2	2.26e-06	0.00774	2.93e-05	–	–	–	–	1.47e-05	4.98e-06	–	–	–
CCc1nn(C)c2c1-c1c(C)ccc3c(CCCOc4cccc5c4CCCC5)c(C(=O)O)n(c13)CCCCOC2 (racemic) [Example 270, (rac)-12-ethyl-10,13-dimethyl-1-(3-((5,6,7,8-tetrahydronaphthalen-1-yl)oxy)propyl)-4,5,6,7,9,10-hexahydropyrazolo[4′,3′:9,10][1]oxa[6]azacycloundecino[8,7,6-hi]indole-2-carboxylic Acid]	6.18	1.2e-05	19.3	5.37e-06	0.00578	> 3.3e-05	–	–	–	–	2.19e-05	5.39e-06	–	–	–
COc1ccc(OCc2nn(C)c3c2-c2cccc4c(CCCOc5cccc6ccccc56)c(C(=O)O)n(c24)CCCCOC3)cc1 (racemic) [Example 319, (rac)-3-[(4-methoxyphenoxy)methyl]-1-methyl-7-[3-(naphthalen-1-yloxy)propyl]-1,10,11,12,13,15-hexahydropyrazolo[4′,3′:9,10][1,6]oxazacycloundecino[8,7,6-hi]indole-8-carboxylic Acid]	18.4	–	30.7	–	0.0371	1.26e-05	–	5.93e-06	1.21e-05	–	–	–	2.83e-05	2.11e-05	–

Further lines, with some results ahead:

EC50 (SUDHL5 [1]) [µM]	IC50 (SUDHL10 [3]; 72 h incubation) [M]	EC50 (SUDHL10 [4]; Homo sapiens, SU-DHL10, 3 h) [µM]	IC50 (SUDHL5 [5]; 72 h incubation) [M]	IC50 (MCL-1) [µM]	IC50 (A2780; Homo sapiens, A2780, 72 h) [M]	IC50 (A2780) [M]	IC50 (SUDHL10 [3]; 72 h) [M]	IC50 (SUDHL5 [5]; 72 h) [M]	EC50 (SUDHL10 [4]) [µM]	SMILES	IC50 (SUDHL10 [2]; [7]) [M]	IC50 (SUDHL5 [6]; [8]) [M]	IC50 (SUDHL10 [2]; [9]) [M]	IC50 (SUDHL5 [6]; [10]) [M]	IC50 (SUDHL10 [2]; read-out: Cytotox SUDHL10 [M] (median), SUDHL10 cells, cytotoxicity induction, CellTiter-Glo, 5 h, median)
30.1	1.98e-05	31.6	3.15e-05	0.0139	3.04e-05	–	–	–	–	Cn1nc2c(c1OC(F)F)-c1cccc3c(CCCOc4cccc5ccccc45)c(C(=O)O)n(c13)CCCCOC2 (racemic) [Example 234, (rac)-3-(difluoromethoxy)-2-methyl-7-[3-(naphthalen-1-yloxy)propyl]-2,10,11,12,13,15-hexahydropyrazolo[4′,3′:9,10][1,6]oxazacycloundecino[8,7,6-hi]indole-8-carboxylic Acid]	> 3.3e-05	2.71e-05	–	–	–
10.9	9.7e-06	22	9.3e-06	0.00788	2.29e-05	> 3.3e-05	–	–	–	O=C(O)c1c(CCCOc2cccc3ccccc23)c2cccc3c2n1CCCCOCc1nn2c(c1-3)COCC2 (racemic) [Example 250, (rac)-1-[3-(naphthalen-1-yloxy)propyl]-4,5,6,7,12,13-hexahydro-9H,15H-[1,4]oxazino[4″,3″:1′,5′]pyrazolo[4′,3′:9,10][1,6]oxazacycloundecino[8,7,6-hi]indole-2-carboxylic Acid]	2.18e-05	1.33e-05	–	–	–
> 33	9.2e-06	> 33	1.5e-05	0.0425	2.03e-05	–	–	–	–	Cc1ccc2c(C(C)CCOc3cccc4ccccc34)c(C(=O)O)n3c2c1-c1c(C)nn(C)c1COCCCC3 (racemic) [Example 256, 1,3,4-trimethyl-7-[4-(naphthalen-1-yloxy)butan-2-yl]-1,10,11,12,13,15-hexahydropyrazolo[4′,3′:9,10][1,6]oxazacycloundecino[8,7,6-hi]indole-8-carboxylic Acid]	> 3.3e-05	2.29e-05	–	–	–
1.77	4.66e-06	3.52	1.17e-06	0.00373	1.85e-05	–	–	–	–	CCc1nn(C)c2c1-c1c(C)ccc3c(C(C)CCOc4cccc5cc(F)ccc45)c(C(=O)O)n(c13)CCCCOC2 (racemic) [Example 261, 3-ethyl-7-{4-[(6-fluoronaphthalen-1-yl)oxy]butan-2-yl}-1,4-dimethyl-1,10,11,12,13,15-hexahydropyrazolo[4′,3′:9,10][1,6]oxazacycloundecino[8,7,6-hi]indole-8-carboxylic Acid]	3.8e-06	2.02e-06	–	–	–
> 33	–	32.1	–	0.027	2.46e-05	–	1.62e-05	1.59e-05	> 33	CN1CCCn2c(C(=O)O)c(CCCOc3cccc4ccccc34)c3cccc(c32)-c2c(nn(C)c2C(F)(F)F)C1 (racemic) [Example 324, (rac)-7,10-dimethyl-1-[3-(naphthalen-1-yloxy)propyl]-11-(trifluoromethyl)-4,5,6,7,8,10-hexahydropyrazolo[3′,4′:7,8][1,5]diazecino[9,10,1-hi]indole-2-carboxylic Acid]	–	–	2.68e-05	2.92e-05	> 3.3e-05
> 33	–	> 33	–	0.0802	> 3.3e-05	–	1.45e-05	2.13e-05	–	Cn1nc(CN2CCCCC2=O)c2c1COCCCCn1c(C(=O)O)c(CCCOc3cccc4ccccc34)c3cccc-2c31 (racemic) [Example 325, (rac)-1-methyl-7-[3-(naphthalen-1-yloxy)propyl]-3-[(2-oxopiperidin-1-yl)methyl]-1,10,11,12,13,15-hexahydropyrazolo[4′,3′:9,10][1,6]oxazacycloundecino[8,7,6-hi]indole-8-carboxylic Acid]	–	–	> 3.3e-05	> 3.3e-05	–
